From US20240083883A1, “RAD51 BINDING INHIBITORS AND METHODS OF USE THEREOF” (Sarissa Inc., priority 2020, published 2024)
“And” between values parts separate entries of the source, which are not always exact repeats. Equal entries are not always repeated. Where two headings read alike, the source gives them in different places.

Legend:
[1] = system: most tested cancer cell lines; details: cited from earlier work
[2] = background section; cited from earlier work
[3] = Solubility comparison of RAD51 inhibitors; assay type: physicochemical; details: for appearance of the 1 mM solution in H2O/DMSO: 1 mM in H2O/DMSO
Experimental: A comparison of the solubility of selected compounds of the present invention with known RAD51 inhibitors was carried out.
Aqueous samples of the mesylate salt were readily prepared and were suitable for testing in inhibition assays. Exemplary solutions were prepared as follows:
soluble in water−1.0 mg JKYN-1-mes+75.9 μl of water=20 mM (13.2 mg/ml)
Exemplary solutions were prepared as follows:
IBR2 was soluble in DMSO to at least 166.8 mM (66.7 mg/ml). Exemplary solutions were prepared as follows:
IBR120 is soluble in DMSO to at least 20 mM (7.77 mg/ml).

normal cells = experiment: Toxicity on normal cells (summary of the normal cell line surrogates); assay type: cell-based, human; details: normal cell surrogates HEK293, CCD841, HK-2, read-out: toxicity (IC50) on normal cells, approximate
Experimental: (§1) Proliferation assays: Cells are maintained in minimum essential medium alpha plus 10% fetal bovine serum and penicillin (50 units/mL)/streptomycin (50 mg/L) (growth medium). Cultures are incubated in a humidified atmosphere of 5% CO2 at 37° C. Rapidly proliferating cells are used to establish cultures of experimental cells, which are allowed to adhere overnight in 96-well plates or 25-cm^2 flasks prior to manipulation.
(§2) Exposure to chemotherapy drugs and combinations thereof: Cells are grown in 96-well plates and treated with simultaneous exposure to a single drug or a combination of two drugs at the concentrations indicated. The relative cell density is determined after 4 days by viability staining (alamarBlue© or neutral red).
(§3) The relative density of cells treated with two agents is normalized to the density observed for a respectively treated “second agent” control. The concentration of drug that inhibits proliferation by 50% (IC50 value) is interpolated from plotted data. The change in the IC50 value of a chemotherapy drug caused by the presence of the second agent is determined as a percent of the IC50 of the first drug alone. Enhancement of cytotoxicity is indicated by a decrease in the IC50 value. This methodology, previously reported (Ferguson et al., 2009; Blake et al., 2017; Ferguson et al., 2018), provides a quantitative, concentration-dependent representation of the magnitude of the drug interaction.
FIG. 23 graphically depicts the toxicity effect on normal (not fully tumorigenic) cell line surrogates resulting from exposure to JKYN-1 (base). The cell line surrogates include: HEK293 (human embryonic kidney transformed with adenovirus 5 DNA); CCD841 (human embryonic colonic epithelial, untransformed); and HK-2 (human kidney proximal tubule, papilloma).

[4] = system: pancreatic cancer cell line (PANC-1); experiment: Proliferation assay, PANC-1; assay type: cell-based; details: for inhibition of proliferation compared with IBR120: range of concentrations
Experimental: as §1, §2, §3

HEK293 = experiment: Proliferation assay, normal cell line surrogate HEK293; assay type: cell-based, human; details: HEK293, single agent, 4 days
Experimental: as §1, §2
(§4) The relative density of cells treated with two agents is normalized to the density observed for a respectively treated “second agent” control. The concentration of drug that inhibits proliferation by 50% (IC50 value) is interpolated from plotted data. The change in the IC50 value of a chemotherapy drug caused by the presence of the second agent is determined as a percent of the IC50 of the first drug alone. […] This methodology, previously reported (Ferguson et al., 2009; Blake et al., 2017; Ferguson et al., 2018), provides a quantitative, concentration-dependent representation of the magnitude of the drug interaction. […]

[5] = system: MCF-7 breast carcinoma cell line; experiment: Proliferation assay, MCF-7; assay type: cell-based
Experimental: as §1, §2, §3

[6] = system: N87 stomach carcinoma cell line; experiment: Proliferation assay, N87; assay type: cell-based
Experimental: as §1, §2, §3

NSCLC cell line H1650 = experiment: Proliferation assay, NSCLC cell line H1650; assay type: cell-based
Experimental: as §1, §2, §3

CCD841 = experiment: Proliferation assay, normal cell line surrogate CCD841; assay type: cell-based, human; details: CCD841, single agent, 4 days
Experimental: as §1, §2, §4

[7] = system: DU145 prostate carcinoma cell line; experiment: Proliferation assay, DU145; assay type: cell-based
Experimental: as §1, §2
(§5) The relative density of cells treated with two agents is normalized to the density observed for a respectively treated “second agent” control. The concentration of drug that inhibits proliferation by 50% (IC50 value) is interpolated from plotted data. The change in the IC50 value of a chemotherapy drug caused by the presence of the second agent is determined as a percent of the IC50 of the first drug alone. […] This methodology, previously reported (Ferguson et al., 2009; Blake et al., 2017; Ferguson et al., 2018), provides a quantitative, concentration-dependent representation of the magnitude of the drug interaction.

HK-2 = experiment: Proliferation assay, normal cell line surrogate HK-2; assay type: cell-based, human; details: HK-2, single agent, 4 days
Experimental: as §1, §2, §4

[8] = system: prostate carcinoma cell line LNCaP; experiment: Proliferation assay, LNCaP; assay type: cell-based
Experimental: as §1, §2, §3

MDA-MB-231 = experiment: Proliferation assay, MDA-MB-231; assay type: cell-based; details: Homo sapiens; MDA-MB-231, single agent
Experimental: as §1, §2, §5

NSCLC cell line A549b = experiment: Proliferation assay, A549b; assay type: cell-based; details: for inhibition of proliferation compared with IBR120: range of concentrations
Experimental: as §1, §2, §3

O=S(=O)(Cc1ccccc1)N1C=Cc2ccccc2C1c1c[nH]c2ccccc12 (centres unmarked) [IBR2]
IC50 [1]: 12 to 20 µM | aqueous solubility (background statement) [2]: low aqueous solubility | appearance of the 1 mM solution in H2O/DMSO [3]: slightly cloudy | solubility in DMSO [3]: at least 166.8 mM and ≥ 66.7 mg/ml | upper limit of solubility in H2O/DMSO ([3]; H2O/DMSO): ~1000 µM | appearance of the 1 mM H2O/DMSO solution diluted 1:10 or more in water [3]: clear | solubility in water ([3]; water): insoluble in water

O=S(=O)(Cc1ccccc1)N1Cc2ccccc2[C@@H]1c1c[nH]c2ccccc12 [IBR120]
aqueous solubility (background statement) [2]: low aqueous solubility | appearance of the 1 mM solution in H2O/DMSO [3]: a little bit cloudy | solution of 25 mg/ml in 100% DMSO ([3]; 25 mg/ml, 100% DMSO): dissolves well | solubility in DMSO [3]: at least 20 mM and ≥ 7.77 mg/ml | appearance of the 1 mM H2O/DMSO solution diluted 1:10 or more in water [3]: clear | solubility in water ([3]; water): insoluble in water

CN1CCN(c2ccc(-c3ccc4c(c3)[C@H](c3c[nH]c5ccccc35)N(S(=O)(=O)Cc3ccccc3)C4)cc2)CC1.CS(=O)(=O)O [JKYN-1-mesylate, (R)-3-(2-(Benzylsulfonyl)-6-(4-(4-methylpiperazin-1-yl)phenyl)isoindolin-1-yl)-1H-indole, Mesylate Salt]
IC50 (normal cells; Homo sapiens): 3 to 4 µM | IC50 (normal cells; Mesylate Salt): 3 to 4 µM | IC50 ([4]; Homo sapiens, PANC-1, single agent): 4.69 ± 1.14 µM | combination effect with afatinib ([4]; PANC-1, combination with afatinib): positive (synergistic) effect | inhibition of proliferation compared with IBR120 ([4]; PANC-1, single agent): superior activity | IC50 (HEK293; Mesylate Salt): 2.89 µM | IC50 ([5]; Homo sapiens, MCF7, MCF-7, about 5 μM (or more) 4-OH-tamoxifen, read-out: IC50 of JKYN-1-mesylate in the presence of 4-OH-tamoxifen): ≤ 1.5 µM | IC50 ([5]; Homo sapiens, MCF7, MCF-7, single agent, read-out: IC50): 4.36 ± 0.42 µM | decrease of the IC50 value of 4-OH-tamoxifen ([5]; MCF-7, combination with 4-OH-tamoxifen): up to 80% | combination effect with 4-OH-tamoxifen ([5]; MCF-7, range of concentrations): synergistic effect | IC50 ([5]; MCF-7, single agent, Mesylate Salt, read-out: IC50): 4 to 5 µM | combination effect with regorafenib ([6]; N87): synergistic effect | decrease of the IC50 value of regorafenib ([6]; N87, combination with regorafenib): up to 54% | IC50 ([6]; N87, single agent): 2.21 ± 1.13 µM | decrease of the IC50 value of osimertinib (NSCLC cell line H1650; H1650, combination with osimertinib): up to 75% | combination effect with osimertinib (NSCLC cell line H1650; H1650, range of concentrations): synergistic effect | IC50 (NSCLC cell line H1650; H1650, single agent, Mesylate Salt, read-out: IC50): ≥ 4 µM | IC50 (NSCLC cell line H1650; Homo sapiens, NCI-H1650, H1650, 6 μM osimertinib, read-out: IC50 of JKYN-1-mesylate in the presence of osimertinib): ~2 µM | IC50 (NSCLC cell line H1650; Homo sapiens, NCI-H1650, H1650, single agent, read-out: IC50): 3.95 µM | IC50 (CCD841; Mesylate Salt): 3.68 µM | effect on inhibition by enzalutamide ([7]; DU145, combination with enzalutamide): enhanced enzalutamide toxicity | combination effect with enzalutamide ([7]; DU145, range of concentrations): synergistic effect | IC50 (HK-2; Mesylate Salt): 3.42 µM | IC50 ([8]; Homo sapiens, single agent): 3.36 ± 0.37 µM | decrease of the IC50 value of enzalutamide ([8]; combination with enzalutamide): up to 30% | combination effect with enzalutamide ([8]; range of concentrations): synergistic effect | IC50 (MDA-MB-231): 5.66 ± 0.36 µM | solubility in water [3]: highly soluble in water | solubility ([3]; water, thermodynamic from solid): ≥ 13200 µg/mL and ≥ 20000 µM | effect on inhibition by regorafenib (NSCLC cell line A549b; combination with regorafenib): potentiates regorafenib | IC50 (NSCLC cell line A549b; single agent): 3.96 ± 0.44 µM | inhibition of proliferation compared with IBR120 (NSCLC cell line A549b; single agent): superior activity

CN1CCN(c2ccc(-c3ccc4c(c3)[C@H](c3c[nH]c5ccccc35)N(S(=O)(=O)Cc3ccccc3)C4)cc2)CC1 [Compound 1, (R)-3-(2-(Benzylsulfonyl)-6-(4-(4-methylpiperazin-1-yl)phenyl)isoindolin-1-yl)-1H-indole]
IC50 (normal cells; listed as JKYN-1): 4 to 6 µM | inhibition of proliferation compared with IBR120 ([4]; PANC-1, single agent): superior activity | IC50 (HEK293; Homo sapiens, HEK293, 96 h): 4.16 µM | IC50 (CCD841; Homo sapiens, CCD-841, 96 h): 5.71 µM | IC50 (HK-2; Homo sapiens, HK-2, 96 h): 3.92 µM | solubility in water at 10 mg/ml [3]: not very soluble in water | appearance of the 1 mM solution in H2O/DMSO [3]: less cloudy than 1 mM IBR120 | inhibition of proliferation compared with IBR120 (NSCLC cell line A549b; single agent): superior activity
